The melting point is the temperature, or range, at which the solid turns liquid.

In one data set the test system is Plutella xylostella. The experiment in a line: Efficacy test against Plutella xylostella (cabbage leaf immersion). In kind it is in vivo. Conditions: 125 ppm, cabbage leaf immersed 30 seconds; second instar larvae; 25° C., humidity 60%; 3 days after insect release. The method, then:
The insecticidal rate was calculated by the following formula. Insecticidal rate (%)=(number of dead insects/number of tested insects)×100 The emulsion (1) was diluted with water so that the concentration of the compound of the present invention was 125 ppm. A cabbage leaf was immersed in the diluent for 30 seconds. This cabbage leaf was placed in a petri dish. Five second instar larvae of Plutella xylostella were released therein. The petri dish was placed in a thermostatic chamber with a temperature of 25° C. and a humidity of 60%. […] The test was repeated twice.

The test system of a further data set is Aphis craccivora. Description: Efficacy test against Aphis craccivora (spray on cowpea plants). In kind it is in vivo. Conditions: 125 ppm sprayed on cowpea plants infested with nymphs; 25° C., humidity 60%; 4 days after spraying. The method, then: The insecticidal rate was calculated by the following formula. Insecticidal rate (%)=(number of dead insects/number of tested insects)×100 Cowpea plants were raised in No. 3 pots, and nymphs of Aphis craccivora were inoculated on the primary leaves. The emulsion (1) was diluted with water so that the concentration of the compound of the present invention was 125 ppm, and the diluent was sprayed on the cowpea plants infested with nymphs of Aphis craccivora. The cowpea plants were placed in a thermostatic chamber with a temperature of 25° C. and a humidity of 60%. […] The test was repeated twice.

Take `Br.CCS(=O)(=O)c1cnc(-c2ncccn2)nc1-c1ccc(O)cn1`: the melting point was in the range of 234 to 239 °C. The molecule `CCS(=O)(=O)c1cnc(-c2ncn(C)n2)nc1-c1ccc(C(F)(F)C(F)(F)C(F)(F)C(F)(F)F)nn1` yielded a melting point of 182 to 185 °C. On the same count and under the same terms, for `CCS(=O)(=O)c1cnc(N)nc1-c1ccc(C(F)(F)C(F)(F)C(F)(F)C(F)(F)F)nn1` the value was 186 to 188 °C.

Turning to `CCS(=O)(=O)c1cnc(NC(=O)C(F)(F)F)nc1-c1ccc(OCC(F)(F)C(F)(F)C(F)(F)F)cn1` [1-80], the insecticidal rate with Plutella xylostella and in the data set on Aphis craccivora was at least 80% each time. For `CCS(=O)(=O)c1cnc(-c2ncccn2)nc1-c1ccc(OCC(F)(F)F)nn1` [2-8], the melting point lay within 209 to 210 °C. Still for that read-out and setting: for `CCS(=O)(=O)c1cnc(O)cc1-c1ccc(OCC(F)(F)C(F)(F)F)cn1` [2-11] the value was 212 to 214 °C.

For the origin of these results see US11427564B2, “Heteroaryl pyrimidine compound and pest control agent” (Nippon Soda Co., Ltd., priority 2017, dated 2022).
